Laboratory results taken from patent US9090594B2, “PIM kinase inhibitors and preparation methods and use in medicinal manufacture thereof” (JIKAI BIOSCIENCES, INC., priority 2011, dated 2015).

Molecular target: T1, PIM-1 (Homo sapiens, UniProt P11309)
T1 construct: purchased Millipore Corporation 14-573
Assay: PIM Kinase Activity Assay-IMAP Fluorescence Polarization Assay (PIM-1)
Assay type: biochemical
Settings: 3 μM concentration
Method: In the present invention, the PIM activities of the compounds were tested by BioDuro (Building E, No. 29 Life Science Park Road, Changping District, Beijing, 102206, P.R. China). The method used for testing is PIM Kinase Activity Assay-IMAP Fluorescence Polarization Assay
PIM Kinase Activity Assay-IMAP Fluorescence Polarization Assay
PIM Is a serine/threonine protein kinase, they can phosphorylate 5-FAM labeled small peptide substrates. Fluorescence polarization is less for non-phosphorylated substrates since that can not bind to the binder (metal binding nanoparticles). On the other hand, fluorescence polarization is more for phosphorylated substrates since that can bind to the binder. The level of 5-FAM labeled small peptide substrates phosphorylation reflects the activities of PIM kinase. By measuring their ability of inhibiting PIM kinase of the compounds of the present invention, their activities of inhibiting PIM kinases can be determined.
EnVision (PerkinElmer, Waltham, Mass.)
PIM1 (Millipore Cat. #14-573) (Millipore Corporation, Billerica, Mass.)
5-FAM labeled peptide (5-FAM-RSRHSSYPAGT, AnaSpec Cat.#63801) (AnaSpec Inc., Fremont, Calif.)
IMAP FP Screening Express kit (IMAP FP Screening kit) (Molecular Devices Cat.# R8127) (Molecular Devices, Sunnyvale, Calif.)
a) 10 mM compound stock solution is diluted to appropriate concentration with 100% DMSO, then diluted 10 fold to targeted concentration with test butter to keep DMSO concentration at 10%
1 ul of compound solution and 4 ul of enzyme (PIM-1final concentration 0.025 nM, PIM-2 concentration 3 nM) is incubated at 23° C. for 15 min, 2.5 ul ATP (for PIM-1 and PIM-2, the final ATP concentrations are 30 uM and 5 uM respectively) 2.5 ul 5-FAM labeled peptide (final concentration 100 nM) was added to start the reaction. The reaction is run at 23° C. for 60 min. DMSO is used in place of compound stock solution as maximum reference and assay buffer is used in place of enzyme as minimum reference. c) add 30 ul IMAP binding reagent (containing 75% IMAP Buffer A, 25% IMAP Buffer B, 1/600 dilution of beads) to stop the reaction, incubated at room temperature for 60 min d) Measure fluorescence polarization, excitation wavelength: 485 nm, emission wavelength 530 nm. 6. Data Process IC50 values were calculated using Graphpad Prism®.

T1 sequence (P11309 whole entry): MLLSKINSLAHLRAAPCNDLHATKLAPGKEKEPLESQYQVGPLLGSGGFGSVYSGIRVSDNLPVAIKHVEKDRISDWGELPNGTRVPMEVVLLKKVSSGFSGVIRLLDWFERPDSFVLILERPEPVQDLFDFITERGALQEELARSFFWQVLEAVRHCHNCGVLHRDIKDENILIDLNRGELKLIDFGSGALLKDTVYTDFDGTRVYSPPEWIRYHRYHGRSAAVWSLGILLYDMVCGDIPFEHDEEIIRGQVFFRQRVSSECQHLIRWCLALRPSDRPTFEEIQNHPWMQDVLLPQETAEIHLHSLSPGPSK

Structure (SMILES) | inhibition at 3 µM
CC(C)c1nc(C(=O)Nc2cncnc2OC2CCNCC2)cs1 [Compound 33, 2-isopropyl-N-(4-(piperidin-4-yloxy)pyrimidin-5-yl)thiazole-4-carboxamide] | 20 to 50%
O=C(Nc1cncnc1OC1CCNCC1)c1coc(-c2c(F)cccc2F)n1 [Compound 57, 2-(2,6-difluorophenyl)-N-(4-(piperidin-4-yloxy)pyrimidin-5-yl)oxazole-4-carboxamide] | 20 to 50%
O=C(Nc1cncnc1OC1CCNCC1)c1csc(C2CCNCC2)n1 [Compound 59, 2-(piperidin-4-yl)-N-(4-(piperidin-4-yloxy)pyrimidin-5-yl)thiazole-4-carboxamide] | 20 to 50%
O=C(Nc1cncnc1OC1CCNCC1)c1csc(N2CCOCC2)n1 [Compound 60, 2-morpholino-N-(4-(piperidin-4-yloxy)pyrimidin-5-yl)thiazole-4-carboxamide] | 20 to 50%
O=C(Nc1cncnc1OC1CCNCC1)c1csc(N2CCCCC2)n1 [Compound 61, 2-(piperidin-1-yl)-N-(4-(piperidin-4-yloxy)pyrimidin-5-yl)thiazole-4-carboxamide] | 20 to 50%

More lines, now with the values ahead:

inhibition at 3 µM | Structure (SMILES)
20 to 50% | CC(=O)Nc1nc(C(=O)Nc2cncnc2OC2CCNCC2)cs1 [Compound 62, 2-acetamido-N-(4-(piperidin-4-yloxy)pyrimidin-5-yl)thiazole-4-carboxamide]
20 to 50% | Nc1sc(-c2c(F)cccc2F)nc1C(=O)Nc1cncnc1S(=O)(=O)CCCO [Compound 63, 5-amino-2-(2,6-difluorophenyl)-N-(4-((3-hydroxypropyl)sulfonyl)pyrimidin-5-yl)thiazole-4-carboxamide]
